Results as given in article PMC11062899, “De novo development of small cyclic peptides that are orally bioavailable” (Nature Chemical Biology, 2023).
“And” between values parts separate entries of the source, which are not always exact repeats. Equal values may be shown once. Read-outs that look alike come from different tables or passages of the source.

Experiments:
rat α-thrombin = molecular target: T1, rat α-thrombin (Rattus norvegicus, UniProt P18292); experiment: Protease inhibition, Ki for rat α-thrombin (fluorogenic substrate Z-Gly-Gly-Arg-AMC); assay type: biochemical; details: for Slope normalized to DMSO (proteolytic substrate cleavage over time): replicates R1-R3
T1 construct: rat α-thrombin (Molecular Innovations) were used at final concentrations of 2 nM and 3 nM; purchased Molecular Innovations
Procedure, shortened: (§1)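 Inhibition was measured as AMC fluorescence from 50 μM substrate, monitored for 30 min at 25 °C, relative to a peptide-free control. Human and rat enzymes were present at 2 nM and 3 nM final, respectively, in 50 mM Tris-HCl pH 7.4, 150 mM NaCl, 10 mM MgCl2, 1 mM CaCl2. Ki derives from fitted IC50 via Cheng–Prusoff.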

human α-thrombin = human α-thrombin (Homo sapiens, UniProt P00734); experiment: Protease inhibition, Ki for human α-thrombin (fluorogenic substrate Z-Gly-Gly-Arg-AMC); assay type: biochemical; details: for Slope normalized to DMSO (proteolytic substrate cleavage over time): replicates R1-R3
Procedure, shortened: as §1

[1] = Passive artificial membrane permeability (PAMPA)
porcine pepsin = molecular target: T2, porcine pepsin (Sus scrofa, UniProt P00791); experiment: Peptide stability in simulated gastric fluid (SGF); assay type: in vitro ADME
T2 construct: 0.32 g of porcine pepsin (Sigma-Aldrich, P7125) was dissolved under gentle agitation; purchased Sigma-Aldrich P7125
Procedure, shortened: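 Peptide from a 1 mM DMSO stock was added to fluid pre-warmed at 37 °C. SGF was pH 1.2 NaCl with porcine pepsin (0.32 g per 100 ml), and SIF was pH 6.8 potassium phosphate with porcine pancreatin (1 g per 100 ml). Supernatant peptide was quantified by LC–MS, with residual expressed as T1/T0.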

[2] = Metabolic stability in rat liver microsomes (RLMs); details: for TIC value of compound, metabolic stability RLM: replicates R1-R3; for microsomal CLint / half-life: rat

T2 sequence (P00791 60-385): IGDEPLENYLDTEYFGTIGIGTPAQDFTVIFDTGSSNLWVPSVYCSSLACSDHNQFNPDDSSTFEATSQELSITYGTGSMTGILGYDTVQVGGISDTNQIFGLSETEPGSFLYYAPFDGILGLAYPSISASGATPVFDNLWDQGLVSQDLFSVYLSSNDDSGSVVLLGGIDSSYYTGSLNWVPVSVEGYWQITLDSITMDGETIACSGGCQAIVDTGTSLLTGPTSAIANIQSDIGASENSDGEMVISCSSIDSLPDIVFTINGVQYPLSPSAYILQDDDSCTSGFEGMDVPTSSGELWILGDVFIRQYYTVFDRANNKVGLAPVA

## O=C1C[C@H]2CCCN2C(=O)[C@H](Cc2ccccc2)NC(=O)[C@@H](NC(=O)c2ccc(Cl)s2)CSC/C=C/CSCCN1 [peptide 32]
Rat α-thrombin; purified peptide, mean and s.d. of three measurements, read-out: Ki rat α-thrombin
  Ki: 1.1 ± 0.41 nM
Rat α-thrombin; rat alpha thrombin, peptide 1.02E-03 uM
  Slope normalized to DMSO (proteolytic substrate cleavage over time): 71.6 and 67.2 and 58.0
Rat α-thrombin; rat alpha thrombin, peptide 1.04E+00 uM
  Slope normalized to DMSO (proteolytic substrate cleavage over time): 6.5 and 8.7 and 6.4
Rat α-thrombin; rat alpha thrombin, peptide 1.27E-04 uM
  Slope normalized to DMSO (proteolytic substrate cleavage over time): 89.6 and 85.7 and 79.9
Rat α-thrombin; rat alpha thrombin, peptide 1.30E-01 uM
  Slope normalized to DMSO (proteolytic substrate cleavage over time): 12.8 and 13.3 and 8.9
Rat α-thrombin; rat alpha thrombin, peptide 1.59E-05 uM
  Slope normalized to DMSO (proteolytic substrate cleavage over time): 102.5 and 122.8 and 94.2
Rat α-thrombin; rat alpha thrombin, peptide 1.63E-02 uM
  Slope normalized to DMSO (proteolytic substrate cleavage over time): 35.3 and 31.4 and 27.2
Rat α-thrombin; rat alpha thrombin, peptide 1.67E+01 uM
  Slope normalized to DMSO (proteolytic substrate cleavage over time): 4.8 and 5.1 and 4.2
Rat α-thrombin; rat alpha thrombin, peptide 2.03E-03 uM
  Slope normalized to DMSO (proteolytic substrate cleavage over time): 56.5 and 52.5 and 45.1
Rat α-thrombin; rat alpha thrombin, peptide 2.08E+00 uM
  Slope normalized to DMSO (proteolytic substrate cleavage over time): 5.0 and 7.7 and 6.7
Rat α-thrombin; rat alpha thrombin, peptide 2.54E-04 uM
  Slope normalized to DMSO (proteolytic substrate cleavage over time): 83.1 and 80.0 and 103.6
Rat α-thrombin; rat alpha thrombin, peptide 2.60E-01 uM
  Slope normalized to DMSO (proteolytic substrate cleavage over time): 12.7 and 11.2 and 6.9
Rat α-thrombin; rat alpha thrombin, peptide 3.18E-05 uM
  Slope normalized to DMSO (proteolytic substrate cleavage over time): 95.8 and 95.0 and 90.9
Rat α-thrombin; rat alpha thrombin, peptide 3.26E-02 uM
  Slope normalized to DMSO (proteolytic substrate cleavage over time): 29.1 and 26.7 and 19.1
Rat α-thrombin; rat alpha thrombin, peptide 3.33E+01 uM
  Slope normalized to DMSO (proteolytic substrate cleavage over time): 5.0 and 6.0 and 4.0
Rat α-thrombin; rat alpha thrombin, peptide 4.07E-03 uM
  Slope normalized to DMSO (proteolytic substrate cleavage over time): 51.9 and 49.0 and 39.9
Rat α-thrombin; rat alpha thrombin, peptide 4.17E+00 uM
  Slope normalized to DMSO (proteolytic substrate cleavage over time): 5.5 and 6.1 and 4.2
Rat α-thrombin; rat alpha thrombin, peptide 5.09E-04 uM
  Slope normalized to DMSO (proteolytic substrate cleavage over time): 76.1 and 71.5 and 67.7
Rat α-thrombin; rat alpha thrombin, peptide 5.21E-01 uM
  Slope normalized to DMSO (proteolytic substrate cleavage over time): 9.5 and 9.3 and 6.7
Rat α-thrombin; rat alpha thrombin, peptide 6.36E-05 uM
  Slope normalized to DMSO (proteolytic substrate cleavage over time): 93.9 and 94.0 and 87.7
Rat α-thrombin; rat alpha thrombin, peptide 6.51E-02 uM
  Slope normalized to DMSO (proteolytic substrate cleavage over time): 18.8 and 16.8 and 12.8
Rat α-thrombin; rat alpha thrombin, peptide 6.67E+01 uM
  Slope normalized to DMSO (proteolytic substrate cleavage over time): 5.5 and 6.5 and 3.1
Rat α-thrombin; rat alpha thrombin, peptide 7.95E-06 uM
  Slope normalized to DMSO (proteolytic substrate cleavage over time): 102.1 and 101.6 and 99.0
Rat α-thrombin; rat alpha thrombin, peptide 8.14E-03 uM
  Slope normalized to DMSO (proteolytic substrate cleavage over time): 40.8 and 35.1 and 27.1
Rat α-thrombin; rat alpha thrombin, peptide 8.33E+00 uM
  Slope normalized to DMSO (proteolytic substrate cleavage over time): 4.4 and 7.1 and 3.1
Rat α-thrombin; rat alpha thrombin, single replicates R1-R3, read-out: IC50, rat alpha thrombin inhibition
  IC50: 2.94 nM and 1.12 nM and 1.9 nM
Rat α-thrombin; rat alpha thrombin, single replicates R1-R3, read-out: Ki, rat alpha thrombin inhibition
  Ki: 1.63 nM (2×) and 0.618 nM (2×) and 1.05 nM
Human α-thrombin; human alpha thrombin, peptide 1.02E-03 uM
  Slope normalized to DMSO (proteolytic substrate cleavage over time): 91.7 and 75.0 and 84.5
Human α-thrombin; human alpha thrombin, peptide 1.04E+00 uM
  Slope normalized to DMSO (proteolytic substrate cleavage over time): 9.7 and 14.2 and 12.5
Human α-thrombin; human alpha thrombin, peptide 1.27E-04 uM
  Slope normalized to DMSO (proteolytic substrate cleavage over time): 92.1 and 89.4 and 95.4
Human α-thrombin; human alpha thrombin, peptide 1.30E-01 uM
  Slope normalized to DMSO (proteolytic substrate cleavage over time): 16.4 and 22.7 and 18.5
Human α-thrombin; human alpha thrombin, peptide 1.59E-05 uM
  Slope normalized to DMSO (proteolytic substrate cleavage over time): 104.8 and 95.5 and 101.0
Human α-thrombin; human alpha thrombin, peptide 1.63E-02 uM
  Slope normalized to DMSO (proteolytic substrate cleavage over time): 54.1 and 48.1 and 57.3
Human α-thrombin; human alpha thrombin, peptide 1.67E+01 uM
  Slope normalized to DMSO (proteolytic substrate cleavage over time): 4.0 and 6.4 and 1.8
Human α-thrombin; human alpha thrombin, peptide 2.03E-03 uM
  Slope normalized to DMSO (proteolytic substrate cleavage over time): 79.8 and 80.8 and 68.0
Human α-thrombin; human alpha thrombin, peptide 2.08E+00 uM
  Slope normalized to DMSO (proteolytic substrate cleavage over time): 5.1 and 8.3 and -0.433
Human α-thrombin; human alpha thrombin, peptide 2.54E-04 uM
  Slope normalized to DMSO (proteolytic substrate cleavage over time): 93.1 and 85.9 and 92.0
Human α-thrombin; human alpha thrombin, peptide 2.60E-01 uM
  Slope normalized to DMSO (proteolytic substrate cleavage over time): 11.6 and 16.8 and 13.0
Human α-thrombin; human alpha thrombin, peptide 3.18E-05 uM
  Slope normalized to DMSO (proteolytic substrate cleavage over time): 103.7 and 94.2 and 96.3
Human α-thrombin; human alpha thrombin, peptide 3.26E-02 uM
  Slope normalized to DMSO (proteolytic substrate cleavage over time): 46.3 and 39.7 and 47.4
Human α-thrombin; human alpha thrombin, peptide 3.33E+01 uM
  Slope normalized to DMSO (proteolytic substrate cleavage over time): -4.9 and 8.0 and -5.2
Human α-thrombin; human alpha thrombin, peptide 4.07E-03 uM
  Slope normalized to DMSO (proteolytic substrate cleavage over time): 68.4 and 49.8 and 67.1
Human α-thrombin; human alpha thrombin, peptide 4.17E+00 uM
  Slope normalized to DMSO (proteolytic substrate cleavage over time): 7.1 and 16.4 and 0.5
Human α-thrombin; human alpha thrombin, peptide 5.09E-04 uM
  Slope normalized to DMSO (proteolytic substrate cleavage over time): 91.3 and 86.2 and 83.7
Human α-thrombin; human alpha thrombin, peptide 5.21E-01 uM
  Slope normalized to DMSO (proteolytic substrate cleavage over time): 9.0 and 17.4 and 10.1
Human α-thrombin; human alpha thrombin, peptide 6.36E-05 uM
  Slope normalized to DMSO (proteolytic substrate cleavage over time): 103.6 and 90.9 and 101.0
Human α-thrombin; human alpha thrombin, peptide 6.51E-02 uM
  Slope normalized to DMSO (proteolytic substrate cleavage over time): 26.8 and 23.7 and 23.8
Human α-thrombin; human alpha thrombin, peptide 6.67E+01 uM
  Slope normalized to DMSO (proteolytic substrate cleavage over time): 5.5 and 8.8 and 5.2
Human α-thrombin; human alpha thrombin, peptide 7.95E-06 uM
  Slope normalized to DMSO (proteolytic substrate cleavage over time): 105.4 and 96.7 and 100.1
Human α-thrombin; human alpha thrombin, peptide 8.14E-03 uM
  Slope normalized to DMSO (proteolytic substrate cleavage over time): 56.5 and 45.5 and 52.6
Human α-thrombin; human alpha thrombin, peptide 8.33E+00 uM
  Slope normalized to DMSO (proteolytic substrate cleavage over time): -1.1 and 9.3 and 3.5
Human α-thrombin; human alpha thrombin, single replicates R1-R3, read-out: IC50, human alpha thrombin inhibition
  IC50: 13.6 nM and 7.3 nM and 13.8 nM
Human α-thrombin; human alpha thrombin, single replicates R1-R3, read-out: Ki, human alpha thrombin inhibition
  Ki: 10.4 nM (2×) and 5.65 nM (2×) and 10.6 nM (2×)
Human α-thrombin; purified peptide, mean and s.d. of three measurements, read-out: Ki human α-thrombin
  Ki: 8.9 ± 2.3 nM
[1]; 50 μM, 12–18 h, acceptor concentration relative to equilibrium
  PAMPA permeability: % permeability: 47 ± 12%
[1]; PAMPA, pH 7.4
  Papp at 50 μM: 6.17 ×10⁻⁶ cm/s
[1]; top well sample vs theoretical equilibrium sample (TIC), average of R1-R3
  Permeability% Average: 46.9%
[1]; top well sample vs theoretical equilibrium sample (TIC), single replicates R1-R3
  Permeability%: 48.47% and 34.58% and 57.51%
Porcine pepsin; after 8 h vs 0 h (TIC), average of R1-R3
  SGF stability, Residual peptide Average: 106.85
Porcine pepsin; after 8 h vs 0 h (TIC), single replicates R1-R3
  SGF stability, Residual peptide: 117.40 and 115.58 and 87.56
Porcine pepsin; simulated gi fluid, 8 h, 37 °C, pH 1.2, read-out: Proteolytic stability: SGF (8 h) % remaining
  remaining at 8 h: 107 ± 17%
[2]; 0 min
  TIC value of compound, metabolic stability RLM: 4102350 (2×) and 4260631
[2]; 5 min
  TIC value of compound, metabolic stability RLM: 2223511 and 2018425 and 2686035
[2]; 15 min
  TIC value of compound, metabolic stability RLM: 283425 and 185564 and 435364
[2]; 30 min
  TIC value of compound, metabolic stability RLM: 0 (2×) and 35161
[2]; 60 min
  TIC value of compound, metabolic stability RLM: 0
[2]; rat liver microsomes, 0 min, replicate R1
  TIC value of compound, 0 min, R1: 4102350
[2]; rat liver microsomes, 0 min, replicate R3
  TIC value of compound, 0 min, R3: 4260631
[2]; rat liver microsomes, 5 min, replicate R1
  TIC value of compound, 5 min, R1: 2223511
[2]; rat liver microsomes, 5 min, replicate R3
  TIC value of compound, 5 min, R3: 2686035
[2]; rat liver microsomes, 15 min, replicate R1
  TIC value of compound, 15 min, R1: 283425
[2]; rat liver microsomes, 15 min, replicate R3
  TIC value of compound, 15 min, R3: 435364
[2]; rat liver microsomes, 30 min, replicate R1
  TIC value of compound, 30 min, R1: 0
[2]; rat liver microsomes, 30 min, replicate R3
  TIC value of compound, 30 min, R3: 35161
[2]; rat liver microsomes, 60 min, replicate R1
  TIC value of compound, 60 min, R1: 0
[2]; rat liver microsomes, 60 min, replicate R3
  TIC value of compound, 60 min, R3: 0
[2]; CL (ul/min/mg protein), R1, RLM CL, replicate R1, unrounded
  microsomal CLint: 278 µL/min/mg
[2]; CL (ul/min/mg protein), R2, RLM CL, replicate R2, unrounded
  microsomal CLint: 276 µL/min/mg
[2]; CL (ul/min/mg protein), R3, RLM CL, replicate R3, unrounded
  microsomal CLint: 234 µL/min/mg
[2]; Half Life (min) in RLMs (single replicates R1–R3), Fig. 5e source data
  half-life: 4.98 min
[2]; Half Life (min), R1, RLM metabolic stability, replicate R1
  half-life: 4.98 min
[2]; Half Life (min), R2, RLM metabolic stability, replicate R2
  half-life: 5.02 min
[2]; Half Life (min), R3, RLM metabolic stability, replicate R3
  half-life: 5.93 min
[2]; microsomes, Clearance (CL) in RLMs, calculated from half-life, mean and s.d. of three measurements
  microsomal CLint: 260 ± 20 µL/min/mg
[2]; microsomes, Half Life, RLM, individual replicates R1-R3
  half-life: 4.98 min
[2]; microsomes, Metabolic stability: Half life T1/2 (min), RLMs, mean and SD, three measurements
  half-life: 5.3 ± 0.4 min
[2]; microsomes, RLM CL, Average, average of R1-R3
  microsomal CLint: 263 µL/min/mg
[2]; microsomes, RLM CL, R1, RLM CL, replicate R1, summary block
  microsomal CLint: 278 µL/min/mg
[2]; microsomes, RLM CL, R2, RLM CL, replicate R2, summary block
  microsomal CLint: 276 µL/min/mg
[2]; microsomes, RLM CL, R3, RLM CL, replicate R3, summary block
  microsomal CLint: 234 µL/min/mg
